Square brackets hold non-standard residues; d marks the D form. Peptide text beside a SMILES is read from it. Ala(1H-tetrazol-5-yl) = N[C@@H](Cc1nnn[nH]1)C(=O)O

The text below walks through data of patent US20220202905A1, “COMPOSITION FOR PREVENTING OR TREATING NEUROTROPHIC KERATITIS WHICH CONTAINS PACAP PEPTIDE OR STABILIZED PACAP PEPTIDE” (SENJU PHARMACEUTICAL CO., LTD., priority 2019, published 2022).

The target of data set [1] is T1, VPAC1R (Homo sapiens, UniProt P32241).
T1 construct: host or cells: CHO-K1
T1 sequence (P32241 31-457): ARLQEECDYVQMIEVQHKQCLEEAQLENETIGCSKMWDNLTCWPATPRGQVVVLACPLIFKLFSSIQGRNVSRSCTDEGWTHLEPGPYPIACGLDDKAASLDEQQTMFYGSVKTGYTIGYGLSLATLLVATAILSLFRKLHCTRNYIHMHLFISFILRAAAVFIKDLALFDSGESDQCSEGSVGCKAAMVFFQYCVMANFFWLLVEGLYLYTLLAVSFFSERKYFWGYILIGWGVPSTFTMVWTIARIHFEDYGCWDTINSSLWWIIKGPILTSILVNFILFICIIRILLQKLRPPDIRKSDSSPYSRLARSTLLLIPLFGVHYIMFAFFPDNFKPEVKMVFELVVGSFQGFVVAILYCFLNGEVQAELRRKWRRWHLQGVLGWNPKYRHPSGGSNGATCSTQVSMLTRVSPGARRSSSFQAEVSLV
As to the kind of experiment: cAMP assay in VPAC1R high-expressing CHO-K1 cell line. It is filed as cell-based. The settings on record: Table 12; cAMP inducing effect, CHO-K1 VPAC1R high-expressing cells. The method, then:
(§1) The cells were cultured for 18 to 24 hours at 37° C. in a 5% C02 incubator, adhering the cells to the plate. […] A 5-fold dilution series was then prepared with the same Cell assay buffer and used in an assay. The cAMP assay was carried out using a Hit Hunter cAMP Assay for Biologics kit (product of DiscoveRx, Cat. No. 90-0075LM25), according to the included kit instructions. […] Next, the culture medium was removed from the CHO-K1 cell culture plate, washing was performed with PBS, and the peptide-cAMP antibody liquid mixtures were added to the cells and incubated for 30 minutes under a 5% CO2 atmosphere at 37° C. A working detection solution was then added and the culture plate was shielded from light with aluminum foil and incubated at 25° C. for 1 hour. After incubation, Solution A was added and the culture plate was shielded from light with aluminum foil and then incubated at 25° C. for 3 hours. […] The obtained value for the Relative Luminescence Unit (RLU) was analyzed with GraphPad Prism Ver 6.05 (product of Graph Pad) and the EC50 value was calculated for each peptide. […] FIG. 2 and Table 11. […] A 5-fold dilution series was then prepared with the same Cell assay buffer and used in an assay. […] A 5-fold dilution series was then prepared with the same Cell assay buffer and used in an assay.

In data set [2] the target is T2, PAC1R (Homo sapiens, UniProt P41586).
T2 construct: host or cells: CHO-K1
T2 sequence (P41586 21-468): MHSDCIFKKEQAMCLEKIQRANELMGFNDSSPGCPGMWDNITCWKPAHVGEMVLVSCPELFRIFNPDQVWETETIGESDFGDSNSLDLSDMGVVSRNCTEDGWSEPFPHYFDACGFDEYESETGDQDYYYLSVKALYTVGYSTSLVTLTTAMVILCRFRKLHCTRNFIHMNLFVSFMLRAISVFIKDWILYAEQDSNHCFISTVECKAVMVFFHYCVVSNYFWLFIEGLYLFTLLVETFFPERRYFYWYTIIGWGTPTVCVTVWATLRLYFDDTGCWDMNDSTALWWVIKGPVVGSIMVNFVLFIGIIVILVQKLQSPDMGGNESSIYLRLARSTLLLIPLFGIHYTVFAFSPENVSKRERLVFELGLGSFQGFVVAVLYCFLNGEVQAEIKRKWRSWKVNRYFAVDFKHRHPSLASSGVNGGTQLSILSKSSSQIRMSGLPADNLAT
As to the kind of experiment: cAMP assay in PAC1R high-expressing CHO-K1 cell line. The settings on record: Table 12; cAMP inducing effect, CHO-K1 PAC1R high-expressing cells. It is filed as cell-based. The procedure: as §1
On the technique in general: cAMP levels reflect the balance of adenylyl cyclase and phosphodiesterase activity.

A short description of data set [3]: Peptide stability test, phosphate buffer (pH 7.0), 40° C. storage, HPLC remaining rate. The format is physicochemical. The method, then:
Peptides 1 and 3 to 5 synthesized in Example 2 were weighed and dissolved in phosphate buffer (pH 7.0) to prepare 1.0 mM peptide solutions. The 1.0 mM peptide solutions were then diluted with phosphate buffer to 100 μM. After filtering with Chromatdisk (product of Merck Millipore, Millex-GV, 0.22 μm), each filtrate was dispensed into an LC vial (Waters Deactivated […] prepared peptide solutions were incubated for one month or 2 months in a 40° C. thermostatic bath to obtain stored samples. A simultaneously prepared sample among the peptide solutions that was not stored was used as a standard sample (initial sample). The standard sample and the stored samples were stored at -30° C. until sample analysis. Using the total weight of the aqueous peptide solution and storage vessel as the specimen weight, measurements were recorded as the specimen weights before storage and the specimen weights after storage under different storage conditions. The empty weight of the storage vessel was also measured, and the moisture permeability was determined by the following formula. After stirring the standard sample and the stored samples with a vortex mixer, each peptide solution was transferred to an HPLC vial (Deactivated Qsert vial by Waters Co.). Reverse-phase HPLC (HPLC system: Prominence by Shimadzu Corp.) was conducted under the conditions shown in Table 3 below for analysis of the peptide solutions, and chromatograms were obtained. Guard column: XSelect CSH C18 by Waters Co., 5 μm, 4.6×20 mm Guard Cartridge Detection wavelength: 220 nm Mobile phase A: 0.1% formic acid aqueous solution Mobile phase B: 0.1% acetonitrile formate solution Measuring time: 30 minutes Measuring sample injection rate: 50 μL Flow rate: 1.0 mL/min Sample cooler: 4° C. Column temperature: 40° C. Mobile phase delivery: The mixing ratio of mobile phase A and mobile phase B was varied as shown in Table 3 for linear concentration gradient control. The peak area value for the peptide in the chromatogram was calculated, and the remaining rate (remaining rate before correction for water) was calculated using formula (2). The remaining rate after correction for water was also calculated from the remaining rate before correction for water using formula (3), taking into account the moisture permeability of the vessel. Peptides 10 and 11 synthesized in Example 2 were weighed and dissolved in phosphate buffer (pH 7.0) to prepare 1.0 mM peptide solutions. Each solution was filtered with a Chromatdisk (product of Merck Millipore. Millex-GV, 0.22 μm). Each filtrate was diluted to 100 μM with phosphate buffer (pH 7.0) and dispensed into a tube (Protein LoBind Tube by Eppendorf Co.). The prepared peptide solutions were incubated for one month or 2 months in a 40° C. thermostatic bath to obtain stored samples. A simultaneously prepared sample among the peptide solutions that was not stored was used as a standard sample (initial sample). The standard sample and the stored samples were stored at -30° C. until sample analysis. The remaining rate after correction for water for each peptide among the stored samples was measured in the same manner as Example 4, and the results are shown in Table 8.

Data set [4] is described as follows: Peptide stability test, Tris buffer (pH 7.0), 60° C. storage, HPLC remaining rate. It is filed as physicochemical. The settings on record: Table 7; 100 μM in Tris buffer pH 7.0. In a few lines:
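Peptides at 100 μM in Tris buffer (pH 7.0) stored 1 or 2 weeks at 60° C.; unstored sample kept at −30° C. as initial reference. Remaining peptide quantified by reversed-phase HPLC at 220 nm (formic acid/acetonitrile gradient, 40° C. column), as water-corrected remaining rate.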

Setting [5] is: Table 8, 100 μM in phosphate buffer pH 7.0, measured as in Example 4.

Usually EC50 stands for the midpoint of the concentration-response curve. High values mean a less potent agent, low ones a more potent agent. As for `CC[C@H](C)[C@H](NC(=O)CNC(=O)[C@H](Cc1nnn[nH]1)NC(=O)[C@H](CO)NC(=O)[C@@H](N)Cc1c[nH]cn1)C(=O)N[C@@H](Cc1ccccc1)C(=O)N[C@H](C(=O)N[C@@H](CC(=O)O)C(=O)N[C@@H](CO)C(=O)N[C@@H](Cc1ccc(O)cc1)C(=O)N[C@@H](CO)C(=O)N[C@@H](CCCNC(=N)N)C(=O)N[C@@H](Cc1ccc(O)cc1)C(=O)N[C@@H](CCCNC(=N)N)C(=O)N[C@@H](CCCCN)C(=O)N[C@@H](CCC(N)=O)C(=O)N[C@@H](CCSC)C(=O)N[C@@H](C)C(=O)N[C@H](C(=O)N[C@@H](CCCCN)C(=O)N[C@@H](CCCCN)C(=O)N[C@@H](Cc1ccc(O)cc1)C(=O)N[C@@H](CC(C)C)C(=O)N[C@@H](C)C(=O)N[C@@H](C)C(=O)N[C@H](C(=O)N[C@@H](CC(C)C)C(N)=O)C(C)C)C(C)C)[C@@H](C)O` [Peptide 3], the EC50 in data set [1] came to 0.101 nM; in data set [2], 0.06 nM.
In data set [1], `CC[C@H](C)[C@H](NC(=O)CNC(=O)[C@H](Cc1nnn[nH]1)NC(=O)[C@H](CO)NC(=O)[C@H](Cc1c[nH]cn1)NC(C)=O)C(=O)N[C@@H](Cc1ccccc1)C(=O)N[C@H](C(=O)N[C@@H](Cc1nnn[nH]1)C(=O)N[C@@H](CO)C(=O)N[C@@H](Cc1ccc(O)cc1)C(=O)N[C@@H](CO)C(=O)N[C@@H](CCCNC(=N)N)C(=O)N[C@@H](Cc1ccc(O)cc1)C(=O)N[C@@H](CCCNC(=N)N)C(=O)N[C@@H](CCCCN)C(=O)N[C@@H](CCC(N)=O)C(=O)N[C@@H](CCSC)C(=O)N[C@@H](C)C(=O)N[C@H](C(=O)N[C@@H](CCCCN)C(=O)N[C@@H](CCCCN)C(=O)N[C@@H](Cc1ccc(O)cc1)C(=O)N[C@@H](CC(C)C)C(=O)N[C@@H](C)C(=O)N[C@@H](C)C(=O)N[C@H](C(=O)N[C@@H](CC(C)C)C(N)=O)C(C)C)C(C)C)[C@@H](C)O` [Peptide 10] (Ac-HS[Ala(1H-tetrazol-5-yl)]GIFT[Ala(1H-tetrazol-5-yl)]SYSRYRKQMAVKKYLAAVL-NH2) showed an EC50 of 0.101 nM. Also, in data set [3] (setting [5]), the “remaining rate after correction for water, 40° C., 1 month preservation” value stood at 94.0% and the “remaining rate after correction for water, 40° C., 2 months preservation” value amounted to 86.8%. The “stability in aqueous solution (in words), 40° C. storage” value in data set [3] (phosphate buffer pH 7.0, 1 or 2 months) was “stabilized to the same degree”.
On to `CC[C@H](C)[C@H](NC(=O)[C@H](C)NC(=O)[C@H](Cc1nnn[nH]1)NC(=O)[C@H](CO)NC(=O)[C@H](Cc1c[nH]cn1)NC(C)=O)C(=O)N[C@@H](Cc1ccccc1)C(=O)N[C@H](C(=O)N[C@@H](Cc1nnn[nH]1)C(=O)N[C@@H](CO)C(=O)N[C@@H](Cc1ccc(O)cc1)C(=O)N[C@@H](CO)C(=O)N[C@@H](CCCNC(=N)N)C(=O)N[C@@H](Cc1ccc(O)cc1)C(=O)N[C@@H](CCCNC(=N)N)C(=O)N[C@@H](CCCCN)C(=O)N[C@@H](CCC(N)=O)C(=O)N[C@@H](CC(C)C)C(=O)N[C@@H](C)C(=O)N[C@H](C(=O)N[C@@H](CCCCN)C(=O)N[C@@H](CCCCN)C(=O)N[C@@H](Cc1ccc(O)cc1)C(=O)N[C@@H](CC(C)C)C(=O)N[C@@H](C)C(=O)N[C@@H](C)C(=O)N[C@H](C(=O)N[C@@H](CC(C)C)C(N)=O)C(C)C)C(C)C)[C@@H](C)O` [Peptide 23] (Ac-HS[Ala(1H-tetrazol-5-yl)]AIFT[Ala(1H-tetrazol-5-yl)]SYSRYRKQLAVKKYLAAVL-NH2), for which the concentration giving a half-maximal response (EC50) in data set [1] stood at 0.072 nM; in data set [2], 0.079 nM. Besides, the “remaining rate after correction for water, 60° C., 1 week preservation” value in data set [4] is 96.5%. The “remaining rate after correction for water, 60° C., 2 weeks preservation” value in data set [4] is given as 93.1%.
In the same order, the values of `CC[C@H](C)[C@H](NC(=O)CNC(=O)[C@H](Cc1nnn[nH]1)NC(=O)[C@H](CO)NC(=O)[C@H](Cc1c[nH]cn1)NC(C)=O)C(=O)N[C@@H](Cc1ccccc1)C(=O)N[C@H](C(=O)N[C@@H](Cc1nnn[nH]1)C(=O)N[C@@H](C)C(=O)N[C@@H](Cc1ccc(O)cc1)C(=O)N[C@@H](CO)C(=O)N[C@@H](CCCNC(=N)N)C(=O)N[C@@H](Cc1ccc(O)cc1)C(=O)N[C@@H](CCCNC(=N)N)C(=O)N[C@@H](CCCCN)C(=O)N[C@@H](CCC(N)=O)C(=O)N[C@@H](C)C(=O)N[C@@H](C)C(=O)N[C@H](C(=O)N[C@@H](CCCCN)C(=O)N[C@@H](CCCCN)C(=O)N[C@@H](Cc1ccc(O)cc1)C(=O)N[C@@H](CC(C)C)C(=O)N[C@@H](C)C(=O)N[C@@H](C)C(=O)N[C@H](C(=O)N[C@@H](CC(C)C)C(N)=O)C(C)C)C(C)C)[C@@H](C)O` [Peptide 27] (Ac-HS[Ala(1H-tetrazol-5-yl)]GIFT[Ala(1H-tetrazol-5-yl)]AYSRYRKQAAVKKYLAAVL-NH2) are 0.044 nM, 0.06 nM, 96.4% and 93.5%.
